Read-outs that look alike come from different tables or passages of the source. Numbered stars: 1 amine (or outer) side, 2 acyl side, 3 side chain; on linkers, the order of the positions; unused ones are H or OH. Bridge positions count the residues as written; N and C are the ends. Square brackets hold non-standard residues; d marks the D form. Peptide text beside a SMILES is read from it. * marks the point of attachment. hTyr(3S-OH,4S-OH,3'-OSO3H) = N[C@H](C(=O)O)[C@H](O)[C@@H](O)c1ccc(O)c(OS(=O)(=O)O)c1; Orn(4R-OH,5R-OH) = O=C([C@H](C[C@@H](O)[C@@H](O)N[*:3])N[*:1])[*:2]; Pro(3S-OH,4S-Me) = C[C@H]1CN[C@H](C(=O)O)[C@H]1O; X1 = CCCCCOc1ccc(-c2cc(-c3ccc(C(=O)*)cc3)no2)cc1; Gln(3R-OH) = NC(=O)C[C@@H](O)[C@H](N)C(=O)O; Hyp = O=C(O)[C@@H]1C[C@@H](O)CN1
Columns and labels:
Safety assessments = format: in vivo, human; conditions: for AE leading to discontinuation / Any AE / Any SAE / Deaths: SAF, number of children (%)
[1] = Plasma micafungin pharmacokinetics on day 7, Studies 2101 and 2102; format: in vivo, human; conditions: for Cmax / tmax / AUCtau / CLss / CLss/wt: day 7 plasma
[2] = cited from earlier work
[3] = cited from earlier work; for Cmax / Mean weight-adjusted CLss: children; for Mean AUCtau: febrile, neutropenic children with deep mycoses
[4] = adults, cited from earlier work
[5] = Study 2101, 3 mg/kg, 6–11 years (n = 13)
[6] = Study 2101, 3 mg/kg, 12–16 years (n = 12)
[7] = Study 2101, 4.5 mg/kg, 2–5 years (n = 31)
[8] = Study 2101, 4.5 mg/kg, 6–11 years (n = 20)
[9] = Study 2102, 4.5 mg/kg, 4 months–<2 years (n = 9)
[10] = Study 2101, 3 mg/kg i.v. once daily, 6–11 years (n = 4), min–max
[11] = Study 2101, 3 mg/kg i.v. once daily, 12–16 years (n = 8), median
[12] = Study 2101, 3 mg/kg i.v. once daily, 12–16 years (n = 8), min–max
[13] = Study 2101, 4.5 mg/kg i.v. once daily, 2–5 years (n = 8), median
[14] = Study 2101, 4.5 mg/kg i.v. once daily, 2–5 years (n = 8), min–max
[15] = Study 2101, 4.5 mg/kg i.v. once daily, 6–11 years (n = 3), median
[16] = Study 2101, 4.5 mg/kg i.v. once daily, 6–11 years (n = 3), min–max
[17] = Study 2101, 4.5 mg/kg i.v. once daily, 12–16 years (n = 1), mean
[18] = Study 2101, 4.5 mg/kg i.v. once daily, 12–16 years (n = 1), median
[19] = pooled analysis of Phase I, II, III trials, 296 children

SMILES: CCCCCOc1ccc(-c2cc(-c3ccc(C(=O)N[C@H]4C[C@@H](O)[C@@H](O)NC(=O)[C@@H]5[C@@H](O)[C@@H](C)CN5C(=O)[C@H]([C@H](O)CC(N)=O)NC(=O)[C@H]([C@H](O)[C@@H](O)c5ccc(O)c(OS(=O)(=O)O)c5)NC(=O)[C@@H]5C[C@@H](O)CN5C(=O)[C@H]([C@@H](C)O)NC4=O)cc3)no2)cc1 [micafungin] (X1-[Orn(4R-OH,5R-OH)]T[Hyp][hTyr(3S-OH,4S-OH,3'-OSO3H)][Gln(3R-OH)][Pro(3S-OH,4S-Me)]; lactam 1-C)
- Deaths considered related to micafungin treatment or to fungal infection (Safety assessments; Studies 2101 and 2102): None
- Liver function abnormalities (Safety assessments; Study 2101 (Table 3)): 4–6%
- AE leading to discontinuation (Safety assessments; [5]): 0
- Any AE (Safety assessments; [5]): 9 (69)
- Any SAE (Safety assessments; [5]): 1 (8)
- Deaths (Safety assessments; [5]): 0
- AE leading to discontinuation (Safety assessments; [6]): 2 (17)
- Any AE (Safety assessments; [6]): 11 (92)
- Any SAE (Safety assessments; [6]): 3 (25)
- Deaths (Safety assessments; [6]): 1 (8)
- AE leading to discontinuation (Safety assessments; [7]): 1 (3)
- Any AE (Safety assessments; [7]): 25 (81)
- Any SAE (Safety assessments; [7]): 3 (10)
- Deaths (Safety assessments; [7]): 0
- AE leading to discontinuation (Safety assessments; [8]): 1 (5)
- Any AE (Safety assessments; [8]): 16 (80)
- Any SAE (Safety assessments; [8]): 2 (10)
- Deaths (Safety assessments; [8]): 2 (10)
- AE leading to discontinuation (Safety assessments; Study 2101, Total (n = 78)): 4 (5)
- Any AE (Safety assessments; Study 2101, Total (n = 78)): 62 (80)
- Any SAE (Safety assessments; Study 2101, Total (n = 78)): 9 (12)
- Deaths (Safety assessments; Study 2101, Total (n = 78)): 3 (4)
- AEs that led to permanent discontinuation of micafungin (Safety assessments; Study 2101, four children, all possibly or probably related): 5%
- Permanent discontinuation due to hypomagnesemia (Safety assessments; Study 2101, n = 1/78): 1%
- Permanent discontinuation due to pyrexia (Safety assessments; Study 2101, n = 1/78): 1%
- Permanent discontinuation due to infusion-associated symptoms (Safety assessments; Study 2101, n = 2/78): 3%
- SAEs considered related to micafungin treatment (Safety assessments; Study 2101, n = 2/78): 3%
- AE considered related to micafungin: hypomagnesemia (Safety assessments; Study 2101, n = 5/78): 6%
- Children with SAEs who recovered with no residual effects (Safety assessments; Study 2101, n = 6/9): 67%
- AE considered related to micafungin: pyrexia (Safety assessments; Study 2101, n = 7/78): 9%
- AE considered related to micafungin: infusion-associated symptoms (hypotension, hypertension, cyanosis) (Safety assessments; Study 2101, n = 9/78): 12%
- Children experiencing SAEs other than death (Safety assessments; Study 2101, n = 9/78): 12%
- AE vomiting (Safety assessments; Study 2101, n = 10/78): 13%
- AE hypokalemia (Safety assessments; Study 2101, n = 11/78): 14%
- AE pyrexia (Safety assessments; Study 2101, n = 15/78): 19%
- Children experiencing at least one AE (Safety assessments; Study 2101, n = 62/78): 80%
- AE leading to discontinuation (Safety assessments; [9]): 2 (22)
- Any AE (Safety assessments; [9]): 9 (100)
- Any SAE (Safety assessments; [9]): 5 (56)
- Deaths (Safety assessments; [9]): 1 (11)
- SAEs considered related to micafungin treatment (Safety assessments; Study 2102, n = 1/9 (pathological fracture, possibly related)): 11%
- Children with SAEs who recovered with no residual effects (Safety assessments; Study 2102, n = 4/5): 80%
- Children experiencing SAEs other than death (Safety assessments; Study 2102, n = 5/9): 56%
- Abnormal liver function tests (NOS) considered related to micafungin (Safety assessments; Study 2102, one child of 9): 11%
- AEs that led to permanent discontinuation of micafungin (Safety assessments; Study 2102, two children): 22%
- Tolerability (Safety assessments; once-daily 3 mg/kg and 4.5 mg/kg, children and adolescents with proven, probable, or suspected Candida infection): well tolerated
- Cmax ([1]; Study 2101, 3 mg/kg i.v. once daily, 6–11 years (n = 4), mean (SD), SD): 20.8 (4.1) µg/mL
- tmax ([1]; Study 2101, 3 mg/kg i.v. once daily, 6–11 years (n = 4), median): 1.1 h
- AUCtau [1, 10]: 191.8 to 300.1 µg·h/mL
- CLss [1, 10]: 344.8 to 625.7 mL/h
- CLss/wt [1, 10]: 0.01 to 0.0154 L/h/kg
- Cmax [1, 10]: 16.8 to 24.8 µg/mL
- tmax [1, 10]: 1.0 to 1.2 h
- CLss [1, 11]: 757.2 mL/h
- tmax [1, 11]: 1.1 h
- AUCtau [1, 12]: 158.9 to 240.1 µg·h/mL
- CLss [1, 12]: 512.6 to 944.2 mL/h
- CLss/wt [1, 12]: 0.0095 to 0.019 L/h/kg
- Cmax [1, 12]: 12.2 to 44.5 µg/mL
- tmax [1, 12]: 1.0 to 2.0 h
- CLss [1, 13]: 222.9 mL/h
- Cmax [1, 13]: 21.9 µg/mL
- AUCtau [1, 14]: 110.0 to 335.4 µg·h/mL
- CLss [1, 14]: 132.7 to 490.9 mL/h
- CLss/wt [1, 14]: 0.0134 to 0.0409 L/h/kg
- Cmax [1, 14]: 8.4 to 28.7 µg/mL
- tmax [1, 14]: 1.0 to 2.1 h
- AUCtau [1, 15]: 264.4 µg·h/mL
- CLss [1, 15]: 332.1 mL/h
- Cmax [1, 15]: 20.2 µg/mL
- tmax [1, 15]: 2.1 h
- AUCtau [1, 16]: 245.7 to 325.2 µg·h/mL
- CLss [1, 16]: 255.3 to 384.7 mL/h
- CLss/wt [1, 16]: 0.0138 to 0.0183 L/h/kg
- Cmax [1, 16]: 17.9 to 24.0 µg/mL
- tmax [1, 16]: 2.0 to 2.1 h
- AUCtau [1, 17]: 339.0 µg·h/mL
- CLss [1, 17]: 306.8 mL/h
- CLss/wt [1, 17]: 0.0133 L/h/kg
- Cmax [1, 17]: 24.9 µg/mL
- tmax [1, 17]: 1.1 h
- AUCtau [1, 18]: 339.0 µg·h/mL
- CLss [1, 18]: 306.8 mL/h
- CLss/wt [1, 18]: 0.0133 L/h/kg
- Cmax [1, 18]: 24.9 µg/mL
- tmax [1, 18]: 1.1 h
- CLss/wt, single child with highest value ([1]; Study 2101, 4.5 mg/kg, 2–5 years, single child, day 7): 0.0409 L/h/kg
- AUC(0-t) ([1]; human, plasma, iv, 4.5 mg/kg, Mean AUCtau, Study 2102): ~300 µg·h/mL
- Overall incidence of liver function abnormalities ([2]; pooled analysis of 3028 adult and pediatric patients): ≤ 3%
- Adverse events (AEs) [2, 19]: 92%
- Serious adverse events (SAEs) [2, 19]: ~34%
- AEs related to micafungin treatment ([2]; pooled analysis, 296 children): 27%
- Related AEs/SAEs leading to discontinuation of therapy ([2]; pooled analysis, 296 children): 2%
- SAEs related to micafungin treatment ([2]; pooled analysis, n = 14/296 children): 5%
- Cmax ([3]; 3 mg/kg): 30.4 µg/mL
- Mean weight-adjusted CLss ([3]; 3 mg/kg): 0.017 L/h/kg
- Cmax ([3]; 4 mg/kg): 43.5 µg/mL
- Mean weight-adjusted CLss ([3]; 4 mg/kg): 0.0142 L/h/kg
- Mean AUCtau ([3]; 3 mg/kg): 190.5 µg·h/mL
- Mean AUCtau ([3]; 4.0 mg/kg): 301.9 µg·h/mL
- AUCtau ([4]; 100 mg/day): 101.6 µg·h/mL
- AUCtau ([4]; 150 mg/day): 166.7 µg·h/mL

From article PMC3818701 (The Pediatric infectious disease journal, 2013)
